Results from patent US20230218573A1, “INDOLE COMPOUNDS FOR THE TREATMENT OF NEURODEGENERATIVE DISEASES” (GALYAN BIO, INC., priority 2020, published 2023).
Entries after “also recorded” stand apart in the source; their conditions may differ.

Legend:
[1] = Pharmacokinetics, plasma and brain concentration by UHPLC-TOF; assay type: in vivo, mice; conditions: mouse, in vivo
Protocol: Compound 22 is an analog of Compound 7. […] Compound 22 pharmacokinetic properties was measured in three male CD1 mice at several timepoints. Compound 22 was dissolved in 10% DMSO, 10%, cremaphor, and 80% saline. The tested dose was 33.3 mg/kg body weight. Brain tissue was homogenized and protein precipitated with acetonitrile. […] As such, Compound 22 was selected for testing in an animal model of HD the R6/2 model. As described below, Compound 22 and its analogs were further tested for their effects on striatal cell viability and effects of mHTT levels.

[2] = system: STHdh 111/111 striatal cells; assay: Cell viability (CellTiter Glo) of heat shocked STHdh 111/111 striatal cells; assay type: cell-based, mouse; conditions: Mus musculus, STHdh 111/111; 10 µM; 48 hours treatment; read-out: Cell Viability striatal cells 3h heat shocked
Protocol: Cell culture - ST HDH Q111/111 (CH00095, Coriell Institute) striatal derived cell line were grown at 33° C. in DMEM (Sigma-Aldrich), supplemented with 10% fetal bovine serum (FBS), 1% Penicillin-Streptomycin (ThermoFisher Scientific), and 0.4 mg/ml G418 (Geneticin; Invitrogen). ST HDH Q111/111 are mouse striatal cells with polyQ length of 1111.
(§4) Pre-Treatment of striatal cell line - First the medium was removed and new DMEM (DMEM, high glucose, HEPES, no phenol red) medium, supplemented with 10% fetal bovine serum (FBS), 1% Penicillin-Streptomycin, containing 10 µM compound was added. The cells were incubated at 33° C. for 24 hours.
(§5) Heat shock - Cells were heat shocked for 3 hours at 41° C.
(§6) Treatment - Medium was removed and new DMEM (DMEM, high glucose, HEPES, no phenol red) medium, supplemented with 1% fetal bovine serum (FBS), 1% Penicillin-Streptomycin, containing 10 µM compound was added. The cells were incubated at 33° C. for 48 hours.
Cell Viability - Cell viability was measured according to manufacturer recommendations with CellTiter Glo (Promega). 96-well plates for used either for cell viability determination or cell staining.

Exon1 Q46 = assay: Circular dichroism of Exon1 Q46, predominantly α-helical state; assay type: biochemical; conditions: Exon1 Q46; conc. compound 0.647 µM
Protocol: Protein samples were diluted with buffer to 7.5 µM prior to Circular Dichroism (CD) measurements. Measurements were conducted at room temperature.
Four spectra at each measurement were taken every 1 nm from 200 to 260 nm, scanning at 50 nm/min with an averaging time of 1 sec. Spectra were obtained from samples in 20 mM phosphate, pH 7.4. Ten scans were averaged for each sample spectrum
Single-wavelength readings at 222 nm were obtained. After subtraction of the Trx contribution, the α-helical content of Httex1 was estimated from its mean residue ellipticity (MREHttex1) at 222 nm. This calculation was conducted as described by Bravo-Arredondo (Bravo-Arredondo, J.M. et al., J Biol Chem. 2018 Dec 21;293(51):19613-19623).
MRE Exon-1 […] and Q46 (Mean Residue Ellipticity) was measured every 1 sec for 300 sec; the 301 readings for each sample were averaged and MRE Trx subtracted. The number of amino acids in each sample to experience a change in helicity was estimated using a previously developed helix-coil transition model, which gave the change in fraction of helicity (ΔfHelix) by the following equation: […]
where MRE Exon1 Q26 or Q46 (MREHttex1 in the formula) describes the helix-coil transition, obtained from the difference between MRE Eon1 Q26 or Q46 at 222 nm of the fusion protein at the given temperature (in our case 37° C.) and the product of MRE Trx at 222 nm at the same temperature and the fraction of residues comprised by Trx in that particular construct, and
In order to calculate an equilibrium of the two states model, percent α-helicity was calculated using the relation of MREHttex1 = 0 and -34700 (deg cm^2 dmol^-1) for 0% and 100% helicity, respectively.
The CD measurements protocol for Compound 101 was the same as outlined above except that from 206 nm - 210 nm and 220 nm - 224 nm, the step size was 0.2 nm, and the bandwidth was 1 nm.

phospho-Tau (Ser396) = assay: Phospho-Tau (Ser396) levels in STHdh 7/7 cells by immunocytochemistry; assay type: cell-based, mouse
Protocol: (§1) Effect of Compound 4 on Phospho-Tau (Ser396) levels - ST HDH Q7/7 (CH00097, Coriell Institute) striatal derived cell line from a knock in transgenic mouse containing HTT loci with a humanized Exon 1 containing 7 polyglutamine repeats. Immunocytochemistry was conducted as described in Example 33 with the exception that instead of 3B5H10 antibody for staining mHTT, phospho-Tau (Ser396) polyclonal antibody (ThermoFisher, Catalog 44-752G) was used to stain phospho-Tau (Ser396).

phospho-Tau (Ser404) = assay: Phospho-Tau (Ser404) levels in STHdh 7/7 cells by immunocytochemistry; assay type: cell-based, mouse
From the text: as §1, with “repeats. Diffuse mHTT quantified with immunocytochemistry” for “repeats. Immunocytochemistry was conducted”, “phospho-Tau (Ser404)” for “phospho-Tau (Ser396)”, “Catalog 44-758G)” for “Catalog 44-752G)”, “phospho-Tau (Ser396) and no heat shock was used.” for “phospho-Tau (Ser396).”

STHdh 111/111 = assay: Morphology of striatal cells expressing mutated huntingtin; assay type: cell-based, mouse; conditions: versus not treated STHdh 111/111
zebrafish larvae [3] = assay: Zebrafish MPP+ motility model, photomotor assay; assay type: in vivo
Protocol: MPP+ selectively targets dopaminergic neurons; the putative mechanism is induction of K+ efflux, cell membrane hyperpolarization and inhibition of neuronal firing. This ultimately leads to an inhibition of complex I, a decrease in ATP production and promotion of the generation of reactive oxygen species upon accumulation in the mitochondria (3). The observed phenotype following exposure to 500 µM from 24 hours post fertilization (hpf) to 120 hpf is characterized by a decrease in movement during lights-on phases of a photomotor assay. In unpublished data below, representative locomotor perturbations of the distance moved and movement frequency is shown.
(§2) Six groups were included in each experiment. Immediately after spawning, 40 embryos per group were allocated to a 24-well plate and system water (solvent) was added to all wells. For assessment of neuroprotective potential, Compound 4 was added for a final concentration of 1, 10 and 20 µM (column 4-6). From the following day at 24 hpf, Compound 4 was co-incubated with 500 µM MPP+. MPP+ was prepared immediately prior to incubation and solutions were changed daily. At 120 hpf, drug treatment and MPP+ exposure was ceased and a 3X wash was performed with system water. Larvae were then relocated to 96-well plates for behavioral recording and placed in a separate recording room for 24-hour acclimation. Prior to behavioral recording, wells were fully replenished system water.
(§3) Naive group was exposed to solvent only. Vehicle group was exposed to solvent and vehicle corresponding to the vehicle of 20 µM drug solution (0.02% DMSO). MPP+ positive control was exposed to solvent and 500 µM MPP+. All compound groups were treated with the respective vehicle and respective concentration of compound 4.
Behavioral data was recorded from 1 p.m. on 6 dpf until shortly after wakening on 7 dpf. The recording consisted of a photomotor assay in which lights switch off and on in 30-minute intervals between 1 p.m. and 6 p.m., producing a consistent photomotor response. […] Upon lights being turned on again, the larvae cease movement followed by a return to baseline. This cycle is repeated five times. Following the last lights-off phase, constant illumination is presented until lights turn off at 10 p.m. for the night. Lights turn on again at 8 a.m. the following day.
Average movement frequency was measured during 30-minute lights-on phases of photomotor assay. Movement bouts were defined as initiated when velocity exceeded a threshold of 2 mm/s and ceased when velocity fell below 1 mm/s.
Distance moved (mm) was defined as the average distance moved during 30-minute lights-on phases of photomotor assay.
Data was obtained using EthoVision XT (Version 11.5.2016, Noldus) and exported to Microsoft Excel for data analysis. […]

zebrafish larvae [4] = assay: Zebrafish MPP+ model, sleep parameters; assay type: in vivo; conditions: co-incubation with MPP+
Protocol: as §2, §3
Behavioral data was recorded from 1 p.m. on 6 dpf until shortly after wakening on 7 dpf. The recording consisted of a photomotor assay in which lights switch off and on in 30-minute intervals between 1 p.m. and 6 p.m., producing a consistent photomotor response. […]

mHTT = mHTT (Mus musculus, UniProt P42859, DEL28-30/G47A/INS49LLPQPQPP/INS60VA/L56P/P40L); assay: Diffuse mHTT levels in heat shocked STHdh 111/111 striatal cells by immunocytochemistry
Sequence of mHTT (P42859 with tags, fused parts or gaps DEL28-30/P40L/G47A/INS49LLPQPQPP/L56P/INS60VA): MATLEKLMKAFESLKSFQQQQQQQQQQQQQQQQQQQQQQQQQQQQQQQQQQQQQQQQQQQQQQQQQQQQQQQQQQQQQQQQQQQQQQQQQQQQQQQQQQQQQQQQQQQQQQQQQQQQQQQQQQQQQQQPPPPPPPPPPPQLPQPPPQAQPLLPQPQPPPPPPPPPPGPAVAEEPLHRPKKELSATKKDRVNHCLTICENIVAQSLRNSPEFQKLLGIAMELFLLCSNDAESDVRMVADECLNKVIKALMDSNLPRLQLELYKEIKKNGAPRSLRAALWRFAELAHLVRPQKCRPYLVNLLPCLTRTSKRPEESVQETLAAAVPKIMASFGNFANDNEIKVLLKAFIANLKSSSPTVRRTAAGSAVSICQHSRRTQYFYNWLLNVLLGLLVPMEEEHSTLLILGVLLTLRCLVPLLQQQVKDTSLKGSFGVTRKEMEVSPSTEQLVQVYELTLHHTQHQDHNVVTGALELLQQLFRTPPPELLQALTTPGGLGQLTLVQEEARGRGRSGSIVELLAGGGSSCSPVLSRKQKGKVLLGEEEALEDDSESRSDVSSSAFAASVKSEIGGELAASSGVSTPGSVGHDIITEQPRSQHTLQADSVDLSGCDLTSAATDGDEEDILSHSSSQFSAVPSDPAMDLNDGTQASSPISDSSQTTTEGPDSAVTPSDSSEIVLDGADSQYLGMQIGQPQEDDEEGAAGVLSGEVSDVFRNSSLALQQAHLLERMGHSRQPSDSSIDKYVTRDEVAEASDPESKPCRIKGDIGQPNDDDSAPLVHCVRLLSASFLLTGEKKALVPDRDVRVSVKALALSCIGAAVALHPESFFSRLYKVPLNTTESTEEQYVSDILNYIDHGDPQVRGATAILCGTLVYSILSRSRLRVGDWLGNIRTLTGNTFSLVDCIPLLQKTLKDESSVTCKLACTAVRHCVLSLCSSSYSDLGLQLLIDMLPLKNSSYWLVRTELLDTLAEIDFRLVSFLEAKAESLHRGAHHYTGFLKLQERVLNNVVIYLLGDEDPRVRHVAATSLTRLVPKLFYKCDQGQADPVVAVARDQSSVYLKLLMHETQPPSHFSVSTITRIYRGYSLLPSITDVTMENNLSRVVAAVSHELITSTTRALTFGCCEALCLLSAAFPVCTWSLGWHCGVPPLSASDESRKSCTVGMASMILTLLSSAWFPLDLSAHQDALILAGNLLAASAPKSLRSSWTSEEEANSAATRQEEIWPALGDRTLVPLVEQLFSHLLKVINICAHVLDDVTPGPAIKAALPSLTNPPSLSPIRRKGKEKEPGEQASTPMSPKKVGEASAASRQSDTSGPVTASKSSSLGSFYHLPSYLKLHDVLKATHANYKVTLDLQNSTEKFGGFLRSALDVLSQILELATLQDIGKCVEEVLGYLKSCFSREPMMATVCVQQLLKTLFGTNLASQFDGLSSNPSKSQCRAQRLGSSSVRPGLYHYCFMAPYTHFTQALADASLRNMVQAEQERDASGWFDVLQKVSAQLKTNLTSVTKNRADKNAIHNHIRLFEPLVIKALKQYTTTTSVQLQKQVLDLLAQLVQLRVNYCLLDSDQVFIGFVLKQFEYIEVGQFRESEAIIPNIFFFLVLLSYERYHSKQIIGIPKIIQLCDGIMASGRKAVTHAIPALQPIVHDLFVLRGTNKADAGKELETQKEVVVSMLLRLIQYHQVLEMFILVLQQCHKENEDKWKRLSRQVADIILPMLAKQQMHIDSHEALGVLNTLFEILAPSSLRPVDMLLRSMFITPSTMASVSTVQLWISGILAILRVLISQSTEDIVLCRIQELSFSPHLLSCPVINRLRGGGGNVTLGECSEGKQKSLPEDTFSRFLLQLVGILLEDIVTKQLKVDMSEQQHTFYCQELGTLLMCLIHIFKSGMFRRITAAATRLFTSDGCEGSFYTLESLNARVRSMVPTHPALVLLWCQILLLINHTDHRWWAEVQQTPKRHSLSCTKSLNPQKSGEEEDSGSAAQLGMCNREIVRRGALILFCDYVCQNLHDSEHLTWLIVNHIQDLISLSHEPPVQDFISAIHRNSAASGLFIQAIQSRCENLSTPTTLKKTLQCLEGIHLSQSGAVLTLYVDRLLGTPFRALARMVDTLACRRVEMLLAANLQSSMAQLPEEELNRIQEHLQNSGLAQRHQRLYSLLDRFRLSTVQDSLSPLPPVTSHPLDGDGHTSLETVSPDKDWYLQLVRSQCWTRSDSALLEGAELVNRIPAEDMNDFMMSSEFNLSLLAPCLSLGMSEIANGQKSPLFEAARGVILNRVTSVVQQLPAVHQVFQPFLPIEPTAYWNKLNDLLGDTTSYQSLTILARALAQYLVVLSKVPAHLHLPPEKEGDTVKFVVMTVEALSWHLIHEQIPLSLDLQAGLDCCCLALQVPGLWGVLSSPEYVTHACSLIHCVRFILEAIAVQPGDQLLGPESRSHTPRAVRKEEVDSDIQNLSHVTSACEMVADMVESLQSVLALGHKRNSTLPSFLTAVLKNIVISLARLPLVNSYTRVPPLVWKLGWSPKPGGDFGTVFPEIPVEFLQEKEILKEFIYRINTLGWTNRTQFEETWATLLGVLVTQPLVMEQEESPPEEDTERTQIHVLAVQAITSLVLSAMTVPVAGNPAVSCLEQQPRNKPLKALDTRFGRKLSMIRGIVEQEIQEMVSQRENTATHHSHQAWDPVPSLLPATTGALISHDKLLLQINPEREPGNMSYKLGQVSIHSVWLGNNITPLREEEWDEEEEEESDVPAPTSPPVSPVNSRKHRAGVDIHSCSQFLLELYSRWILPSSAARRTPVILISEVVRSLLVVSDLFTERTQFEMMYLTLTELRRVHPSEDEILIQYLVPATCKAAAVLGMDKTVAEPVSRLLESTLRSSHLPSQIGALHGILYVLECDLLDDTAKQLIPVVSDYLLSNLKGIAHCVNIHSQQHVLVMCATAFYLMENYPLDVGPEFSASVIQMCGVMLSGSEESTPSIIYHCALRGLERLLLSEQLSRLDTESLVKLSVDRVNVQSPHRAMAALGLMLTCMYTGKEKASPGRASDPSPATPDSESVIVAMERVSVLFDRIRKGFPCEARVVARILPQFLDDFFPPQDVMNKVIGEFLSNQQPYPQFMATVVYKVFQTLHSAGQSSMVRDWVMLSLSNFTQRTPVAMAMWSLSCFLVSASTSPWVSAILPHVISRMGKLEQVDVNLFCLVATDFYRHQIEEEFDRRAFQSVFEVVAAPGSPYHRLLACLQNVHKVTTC
Protocol: as §4, §5, §6
Staining - Cells were permeabilized with 0.3% Triton X-100 in 4° C. PBS (pH 7.4 from ThermoFisher) for 10 minutes. Then the cells were washed two times with 4° C. PBS. Subsequently, cells are blocked with 3% NGS (normal goat serum from Thermo Fisher) in 4° C. PBS for 1 hour. Cells were incubated with primary antibodies in blocking buffer (PBS, 3% NGS, 0.02% NaN3) over night at 4° C. Primary antibodies were mouse antipolyglutamine monoclonal antibody 3B5H10 (Sigma-Aldrich) at 1:250 dilution and Guinea Pig anti-MAP2 polyclonal antibody (Synaptic Systems) at 1:500 dilution. 3B5H10 binds to diffuse mHTT. Diffuse mHTT is a monomeric and small oligomeric mHTT.
Cells were washed 2 times with 4° C. PBS, and then incubated with secondary antibodies at 1:2000 dilution in blocking buffer for 1 hour at room temperature. […] Cells were washed 2 times with 4° C. PBS, and then the nuclei were counterstain with DAPI (ThermoFisher) for 10 min at room temperature in the dark. Cells were washed 2 times with 4° C. PBS, and then 4° C. PBS was added to cells and then images were acquired.
Fluorescence Imaging - Imaging sessions were performed on a confocal microscope system (Carl Zeiss Microscopy) equipped with a dual spinning disk unit (Yokogawa). All components of the imaging system were controlled via the ZEN 2 software suite (Carl Zeiss Microscopy). The laser lines used were 405 nm, 488 nm and 639 nm to excite DAPI or the respective fluorophores. […] Nested t test was performed to calculate the significance amongst repeated measurements using GraphPad Prism software.
EC 50 value was determined with non-linear regression.

[5] = 1, 10 and 20 µM with 500 µM MPP+

CCc1c(C)[nH]c2ccc(C(=O)NCCN(CC)CC)cc12 [Compound 4, N-(2-(diethylamino)ethyl)-3-ethyl-2-methyl-1H-indole-5-carboxamide]
crossing of the blood brain barrier [1]: can cross the blood brain barrier
viability at 10 µM [2]: 125%
Fraction Helix fH (%) (Exon1 Q46): 20.0%
Phospho-Tau (Ser396) reduced by (phospho-Tau (Ser396); STHdh 7/7, 10 µM, in comparison to untreated cells): 26.3%
Phospho-Tau (Ser396) reduction (phospho-Tau (Ser396); STHdh 7/7 exposed to 10 mM ammonium chloride, 5 µM): could not reduce
Phospho-Tau (Ser396) reduction (phospho-Tau (Ser396); STHdh 7/7 exposed to ammonium chloride, 10 µM): 15.2%
Phospho-Tau (Ser404) reduced by (phospho-Tau (Ser404); STHdh 7/7, 10 µM, no heat shock, in comparison to untreated cells): 40%
Phospho-Tau (Ser404) reduction (phospho-Tau (Ser404); STHdh 7/7 exposed to 10 mM ammonium chloride): could not reduce
morphology of STHdh 111/111 (STHdh 111/111): improved cell viability, dendrite outgrowth and increased cell size
distance moved, drug treatment groups compared to MPP+ (zebrafish larvae [3]; [5]): no significant difference
movement frequency, drug treatment groups compared to MPP+ (zebrafish larvae [3]; [5]): no significant difference
overall movement during assessment of neuroprotection (zebrafish larvae [3]; concentrations ~10 µM and ~1 µM with MPP+): subtle increase in overall movement
sleep parameters (sleep fragmentation, sleep ratio, velocity, wake bout duration, sleep bout duration) (zebrafish larvae [4]): No statistically significant difference; also recorded: does neither reduce nor increase sleep
EC50 (mHTT): 130 nM
Diffuse mHTT reduced by (mHTT; STHdh 111/111, in comparison to untreated cells): 68%
